Values joined by “and” are separate entries in the source; they are usually repeats but may differ in a detail not shown here. Identical values can stand only once. Results filed as inconclusive are left out.
System: nude mice, HT29 intrarenal xenograft, tumor weight T/C
Assay: NCI In Vivo Anticancer Drug Screen. Data for tumor model HT29;CX-1 Human Adenocarcinoma (MER+) (intrarenal inoculation) in NU/NU Swiss (nude) mice
Details: endpoint: mean tumor weight change, higher = larger tumour
Method in brief: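 Readout: treated/vehicle-control ratio of the measured endpoint (tumor size or survival) in transplanted-tumor mice.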

[1] = dose: 50.0 mg/kg/injection, schedule: Q04DX004 (sc), vehicle: saline with Tween-80
[2] = dose: 300.0 mg/kg/injection, schedule: Q04DX004 (sc), vehicle: saline with Tween-80
[3] = dose: 600.0 mg/kg/injection, schedule: Q04DX004 (sc), vehicle: saline with Tween-80
[4] = dose: 1200.0 mg/kg/injection, schedule: Q04DX004 (sc), vehicle: saline with Tween-80
[5] = dose: 2400.0 mg/kg/injection, schedule: Q04DX004 (sc), vehicle: saline with Tween-80
[6] = dose: 12.5 mg/kg/injection, schedule: Q01DX010 (sc), vehicle: saline
[7] = dose: 50.0 mg/kg/injection, schedule: Q01DX010 (sc), vehicle: saline
[8] = dose: 100.0 mg/kg/injection, schedule: Q01DX010 (sc), vehicle: saline
[9] = dose: 200.0 mg/kg/injection, schedule: Q01DX010 (sc), vehicle: saline
[10] = dose: 25.0 mg/kg/injection, schedule: Q01DX010 (sc), vehicle: saline

For `C1CCC2C[N-]CCC2C1.C1CCC2C[N-]CCC2C1.C1CCC2C[N-]CCC2C1.C1CCC2C[N-]CCC2C1.[Cl][Rh][Cl]` (centres undefined), the T/C (dose: 9.0 mg/kg/injection, schedule: Q04DX004 (sc), vehicle: saline with Tween-80) was 96 % of control, the T/C (dose: 18.0 mg/kg/injection, schedule: Q04DX004 (sc), vehicle: saline with Tween-80) was 82 % of control and the T/C (dose: 36.0 mg/kg/injection, schedule: Q04DX004 (sc), vehicle: saline with Tween-80) was 84 % of control. The T/C (dose: 72.0 mg/kg/injection, schedule: Q04DX004 (sc), vehicle: saline with Tween-80) was 73 % of control.
In the case of `C[CH2][Sn]([CH2]C)([CH2]C(=O)OC)[CH2]C(=O)OC`, the T/C (dose: 12.5 mg/kg/injection, schedule: Q04DX004 (sc), vehicle: saline with Tween-80) is reported as 79 % of control, the T/C (dose: 25.0 mg/kg/injection, schedule: Q04DX004 (sc), vehicle: saline with Tween-80) is reported as 83 % of control and the T/C [1] is reported as 79 % of control.
`COc1ccc(CC2C(=O)NC(C)C(=O)N(C)C3Cc4ccc(cc4)Oc4cc(ccc4O)CC(C(=O)NC(C)C(=O)NC(C)C(=O)N2C)N(C)C3=O)cc1` (centres undefined) was tested, and the T/C (dose: 1.0 mg/kg/injection, schedule: Q04DX004 (sc), vehicle: saline with Tween-80) was 59 % of control, the T/C (dose: 2.0 mg/kg/injection, schedule: Q04DX004 (sc), vehicle: saline with Tween-80) was 64 % of control and the T/C (dose: 4.0 mg/kg/injection, schedule: Q04DX004 (sc), vehicle: saline with Tween-80) was 70 % of control. The T/C (dose: 8.0 mg/kg/injection, schedule: Q04DX004 (sc), vehicle: saline with Tween-80) was 56 % of control and 68 % of control and the T/C (dose: 16.0 mg/kg/injection, schedule: Q04DX004 (sc), vehicle: saline with Tween-80) was 70 % of control.
For `COc1cc(Cl)ccc1C`, the T/C [2] was 64 % of control, the T/C [3] was 90 % of control and the T/C [4] was 76 % of control. The T/C [5] was 84 % of control.
With `CC(=O)OC1C(O)C(C)OC(OC2C(OC(=O)C3CCC4C(C3)OC3(CC(OC(=O)/C=C/c5ccccc5)C(C)CO3)C43CO3)OC(C)C(O)C2OC(C)=O)C1O` (centres undefined) the T/C (dose: 15.0 mg/kg/injection, schedule: Q04DX004 (sc), vehicle: distilled water + Tween-80) was 100 % of control, the T/C (dose: 30.0 mg/kg/injection, schedule: Q04DX004 (sc), vehicle: distilled water + Tween-80) was 62 % of control and the T/C (dose: 60.0 mg/kg/injection, schedule: Q04DX004 (sc), vehicle: distilled water + Tween-80) was 61 % of control. For the same compound, the T/C (dose: 120.0 mg/kg/injection, schedule: Q04DX004 (sc), vehicle: distilled water + Tween-80) was 91 % of control.
In the case of `CCN(CC)CCOCCO`, the T/C (dose: 150.0 mg/kg/injection, schedule: Q04DX004 (sc), vehicle: saline) is reported as 113 % of control and the T/C (dose: 300.0 mg/kg/injection, schedule: Q04DX004 (sc), vehicle: saline) is reported as 89 % of control.
With `CCCCCCCC(=O)OCC(=O)[C@]1(O)Cc2c(O)c3c(c(O)c2[C@@H](OC2CC(N)C(O)C(C)O2)C1)C(=O)c1c(OC)cccc1C3=O` (some centres undefined) the T/C (dose: 2.0 mg/kg/injection, schedule: Q04DX004 (sc), vehicle: suspension in saline) was 90 % of control, the T/C (dose: 4.0 mg/kg/injection, schedule: Q01DX010 (sc), vehicle: suspension in saline) was 222 % of control and the T/C (dose: 4.0 mg/kg/injection, schedule: Q04DX004 (sc), vehicle: suspension in saline) was 50 % of control. For the same compound, the T/C (dose: 5.0 mg/kg/injection, schedule: Q04DX004 (sc), vehicle: suspension in saline) was 106 % of control, the T/C (dose: 8.0 mg/kg/injection, schedule: Q01DX010 (sc), vehicle: suspension in saline) was 67 % of control and the T/C (dose: 8.0 mg/kg/injection, schedule: Q04DX004 (sc), vehicle: suspension in saline) was 42 % of control. The T/C (dose: 10.0 mg/kg/injection, schedule: Q04DX004 (sc), vehicle: suspension in saline) was 29 % of control, the T/C (dose: 16.0 mg/kg/injection, schedule: Q04DX004 (sc), vehicle: suspension in saline) was 33 % of control and the T/C (dose: 20.0 mg/kg/injection, schedule: Q04DX004 (sc), vehicle: suspension in saline) was 42 % of control.
With `CC1(C)N=C(N)N=C(N)N1c1ccc(CCCCc2ccc(S(=O)(=O)F)cc2Cl)c(Cl)c1` the T/C [6] was 84 % of control and 100 % of control, the T/C [7] was 98 % of control and the T/C [8] was 81 % of control.
`Nc1nc(F)nc2c1ncn2C1OC(COP(=O)(O)O)C(O)C1O` (centres undefined) was tested, and the T/C [7] was 91 % of control, the T/C [8] was 84 % of control and the T/C [9] was 22 % of control.
For `Cc1cc2cc3cc(C)c(N)cc3nc2cc1N`, the T/C [1] was 86 % of control, the T/C (dose: 100.0 mg/kg/injection, schedule: Q04DX004 (sc), vehicle: saline with Tween-80) was 90 % of control and the T/C (dose: 200.0 mg/kg/injection, schedule: Q04DX004 (sc), vehicle: saline with Tween-80) was 82 % of control. For the same compound, the T/C [2] was 89 % of control, the T/C (dose: 400.0 mg/kg/injection, schedule: Q04DX004 (sc), vehicle: saline with Tween-80) was 66 % of control and the T/C [3] was 21 % of control. For the same compound, the T/C [4] was 37 % of control and the T/C [5] was 45 % of control.
In the case of `CC1(C)N=C(N)N=C(N)N1c1ccc(F)c(C(F)(F)F)c1`, the T/C (dose: 3.12 mg/kg/injection, schedule: Q01DX010 (sc), vehicle: saline) is reported as 103 % of control, the T/C (dose: 6.25 mg/kg/injection, schedule: Q01DX010 (sc), vehicle: saline) is reported as 84 % of control and the T/C [6] is reported as 49 % of control. For the same compound, the T/C [10] was 124 % of control.
`CC(=O)N(C)C` was tested, and the T/C (dose: 1350.0 mg/kg/injection, schedule: Q04DX004 (sc), vehicle: saline) was 112 % of control and the T/C (dose: 2700.0 mg/kg/injection, schedule: Q04DX004 (sc), vehicle: saline) was 45 % of control.
For `O=S(=O)(SC(S(=O)(=O)c1ccccc1)S(=O)(=O)c1ccccc1)c1ccccc1`, the T/C (dose: 100.0 mg/kg/injection, schedule: Q04DX004 (sc), vehicle: Klucel (hydroxypropylcellulose) (HPC)) was 246 % of control, the T/C (dose: 200.0 mg/kg/injection, schedule: Q04DX004 (sc), vehicle: Klucel (hydroxypropylcellulose) (HPC)) was 203 % of control and the T/C (dose: 400.0 mg/kg/injection, schedule: Q04DX004 (sc), vehicle: Klucel (hydroxypropylcellulose) (HPC)) was 246 % of control.
In the case of `COc1ccc(C(=O)/C(Br)=C/C(=O)O)cc1`, the T/C [6] is reported as 73 % of control, the T/C [10] is reported as 122 % of control and the T/C [7] is reported as 56 % of control.
For `O=C1NC(O)CCN1C1OC(CO)C(O)C1O` (centres undefined), the T/C (dose: 200.0 mg/kg/injection, schedule: Q01DX010 (sc), vehicle: water) was 83 % of control, the T/C (dose: 400.0 mg/kg/injection, schedule: Q01DX010 (sc), vehicle: water) was 70 % of control and the T/C (dose: 800.0 mg/kg/injection, schedule: Q01DX010 (sc), vehicle: water) was 63 % of control. The T/C (dose: 1600.0 mg/kg/injection, schedule: Q01DX010 (sc), vehicle: water) was 67 % of control.
For `NC(=O)c1[nH]nc(C2OC(CO)C(O)C2O)c1O` (centres undefined), the T/C (dose: 10.0 mg/kg/injection, schedule: Q04DX004 (sc), vehicle: saline) was 73 % of control.
`C[C@]12CCC(=O)C=C1CC[C@@H]1[C@@H]2C(=O)C[C@@]2(C)[C@H]1CC[C@]2(O)C(=O)CO` was tested, and the T/C (dose: 300.0 mg/kg/injection, schedule: Q04DX004 (sc), vehicle: Klucel (hydroxypropylcellulose) (HPC)) was 55 % of control, the T/C (dose: 600.0 mg/kg/injection, schedule: Q04DX004 (sc), vehicle: Klucel (hydroxypropylcellulose) (HPC)) was 42 % of control and the T/C (dose: 1200.0 mg/kg/injection, schedule: Q04DX004 (sc), vehicle: Klucel (hydroxypropylcellulose) (HPC)) was 42 % of control.
In the case of `CN(C)[C@@H]1C(=O)C(C(N)=O)=C(O)[C@@]2(O)C(=O)C3=C(O)c4c(O)ccc(Cl)c4[C@@](C)(O)[C@H]3C[C@@H]12`, the T/C (dose: 200.0 mg/kg/injection, schedule: Q04DX004 (sc), vehicle: saline) is reported as 62 % of control, the T/C (dose: 400.0 mg/kg/injection, schedule: Q04DX004 (sc), vehicle: saline) is reported as 87 % of control and the T/C (dose: 800.0 mg/kg/injection, schedule: Q04DX004 (sc), vehicle: saline) is reported as 82 % of control. For the same compound, the T/C (dose: 1600.0 mg/kg/injection, schedule: Q04DX004 (sc), vehicle: saline) was 66 % of control.
`Cc1cn(C2CC3[O][Sn]([c]4ccccc4)([c]4ccccc4)[O]CC3O2)c(=O)[nH]c1=O` (centres undefined) was tested, and the T/C [10] was 60 % of control, the T/C [7] was 60 % of control and the T/C [8] was 79 % of control. For the same compound, the T/C [9] was 55 % of control, the T/C (dose: 600.0 mg/kg/injection, schedule: Q04DX004 (sc), vehicle: saline) was 94 % of control and the T/C (dose: 1200.0 mg/kg/injection, schedule: Q04DX004 (sc), vehicle: saline) was 95 % of control. For the same compound, the T/C (dose: 2400.0 mg/kg/injection, schedule: Q04DX004 (sc), vehicle: saline) was 94 % of control.
With `CN(N=O)C(N)=O` the T/C (dose: 12.5 mg/kg/injection, schedule: Q01DX010 (sc), vehicle: saline with Tween-80) was 119 % of control, the T/C (dose: 25.0 mg/kg/injection, schedule: Q01DX010 (sc), vehicle: saline with Tween-80) was 41 % of control and the T/C (dose: 100.0 mg/kg/injection, schedule: Q04DX004 (sc), vehicle: suspension in saline) was 101 % of control.

— PubChem BioAssay AID206 (DTP/NCI, 2004)
